The IC50 is the point on the concentration scale where inhibition reaches its midpoint.

For the test, the target named is T1, c-Met kinase (recombinant c-Met) (Homo sapiens, UniProt P08581).
T1 construct: 0.27 nM recombinant c-Met
T1 sequence (P08581 25-1390): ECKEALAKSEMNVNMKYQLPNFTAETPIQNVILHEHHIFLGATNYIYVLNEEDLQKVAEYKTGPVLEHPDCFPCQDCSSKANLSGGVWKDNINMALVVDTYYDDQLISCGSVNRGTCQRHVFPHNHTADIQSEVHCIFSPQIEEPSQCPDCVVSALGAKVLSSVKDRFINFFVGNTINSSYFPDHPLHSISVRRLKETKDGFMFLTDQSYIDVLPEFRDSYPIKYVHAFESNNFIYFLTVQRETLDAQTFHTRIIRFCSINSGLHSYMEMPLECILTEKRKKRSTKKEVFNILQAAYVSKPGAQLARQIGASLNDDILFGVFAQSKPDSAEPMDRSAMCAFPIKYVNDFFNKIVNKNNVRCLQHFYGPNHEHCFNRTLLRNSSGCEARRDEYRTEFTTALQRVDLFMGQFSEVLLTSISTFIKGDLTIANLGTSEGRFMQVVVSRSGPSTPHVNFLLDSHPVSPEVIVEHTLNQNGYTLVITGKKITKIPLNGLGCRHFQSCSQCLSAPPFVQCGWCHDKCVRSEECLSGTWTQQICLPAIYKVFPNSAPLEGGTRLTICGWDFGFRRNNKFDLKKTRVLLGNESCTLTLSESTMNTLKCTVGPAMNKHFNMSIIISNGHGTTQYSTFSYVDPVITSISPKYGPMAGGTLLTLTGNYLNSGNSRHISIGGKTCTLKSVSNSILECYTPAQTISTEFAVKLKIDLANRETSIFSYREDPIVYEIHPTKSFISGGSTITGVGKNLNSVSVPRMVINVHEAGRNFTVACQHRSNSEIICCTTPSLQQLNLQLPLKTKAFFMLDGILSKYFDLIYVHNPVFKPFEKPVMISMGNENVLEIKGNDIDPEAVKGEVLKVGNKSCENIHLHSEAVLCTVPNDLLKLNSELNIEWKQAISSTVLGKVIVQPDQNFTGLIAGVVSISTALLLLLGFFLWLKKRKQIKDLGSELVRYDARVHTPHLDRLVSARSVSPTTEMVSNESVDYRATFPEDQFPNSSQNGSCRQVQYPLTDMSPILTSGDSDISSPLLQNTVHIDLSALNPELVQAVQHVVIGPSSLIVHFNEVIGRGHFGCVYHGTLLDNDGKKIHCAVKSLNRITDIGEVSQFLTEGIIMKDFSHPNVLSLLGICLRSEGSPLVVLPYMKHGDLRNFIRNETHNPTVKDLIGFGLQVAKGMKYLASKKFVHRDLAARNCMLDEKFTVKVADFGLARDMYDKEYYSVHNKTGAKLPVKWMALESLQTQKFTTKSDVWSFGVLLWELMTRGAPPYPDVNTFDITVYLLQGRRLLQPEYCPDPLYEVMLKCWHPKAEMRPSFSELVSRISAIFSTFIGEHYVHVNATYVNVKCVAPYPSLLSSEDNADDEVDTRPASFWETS
As to the kind of experiment: In vitro kinase assay I (homogeneous time-resolved fluorescence tyrosine kinase assay). The class given is biochemical. Put shortly:
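Biotinylated peptide (0.5 μM) phosphorylated by 0.2 nM recombinant c-Met with 50 μM MgATP, 60 min at room temperature, pH 7.4, 5% DMSO. EDTA stop; HTRF read with Eu-anti-phosphotyrosine antibody and streptavidin-APC. IC50 from 4-parameter logistic fit.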
In the case of `CCC(COC(=O)Nc1cccc(Cc2nn(-c3cccc(C#N)c3)ccc2=O)c1)OC` (racemic) [Example 581, rac-2-methoxybutyl (3-{[1-(3-cyanophenyl)-4-oxo-1,4-dihydropyridazin-3-yl]methyl}phenyl)carbamate], the IC50 is below 100 nM.
Consider `N#Cc1cccc(-n2ccc(=O)c(Cc3cccc(NC(=O)OCC4CCOC4)c3)n2)c1` (racemic) [Example 583, rac-tetrahydrofuran-3-ylmethyl (3-{[1-(3-cyanophenyl)-4-oxo-1,4-dihydropyridazin-3-yl]methyl}phenyl)carbamate], for which the IC50 was below 100 nM.
`COCCN1CCC(COC(=O)Nc2cccc(Cc3nn(-c4cccc(C#N)c4)ccc3=O)c2)C1` (racemic) [Example 585, rac-[1-(2-methoxyethyl)pyrrolidin-3-yl]methyl (3-{[1-(3-cyanophenyl)-4-oxo-1,4-dihydropyridazin-3-yl]methyl}phenyl)carbamate]: the IC50 is below 100 nM.
Next, `CCC(COC(=O)Nc1cccc(Cc2nn(-c3cc(F)cc(F)c3)ccc2=O)c1)OC` (racemic) [Example 591, rac-2-methoxybutyl (3-{[1-(3,5-difluorophenyl)-4-oxo-1,4-dihydropyridazin-3-yl]methyl}phenyl)carbamate]: below 100 nM.
For `O=C(Nc1cccc(Cc2nn(-c3cc(F)cc(F)c3)ccc2=O)c1)OCC1CCOC1` (racemic) [Example 593, rac-tetrahydrofuran-3-ylmethyl-(3-{[1-(3,5-difluorophenyl)-4-oxo-1,4-dihydropyridazin-3-yl]methyl}phenyl)carbamate], the concentration for half-maximal inhibition (IC50) was below 100 nM.
Next, `COCCN1CCC(COC(=O)Nc2cccc(Cc3nn(-c4cc(F)cc(F)c4)ccc3=O)c2)C1` (racemic) [Example 594, rac-[1-(2-methoxyethyl)pyrrolidin-3-yl]methyl-(3-{[1-(3,5-difluorophenyl)-4-oxo-1,4-dihydropyridazin-3-yl]methyl}phenyl)carbamate]: below 100 nM; `N#Cc1cccc(-n2ccc(=O)c(Cc3cccc(NC(=O)OCC4COCCO4)c3)n2)c1` (racemic) [Example 601, rac-1,4-dioxan-2-ylmethyl (3-{[1-(3-cyanophenyl)-4-oxo-1,4-dihydropyridazin-3-yl]methyl}phenyl)carbamate]: below 100 nM; `O=C(Nc1cccc(Cc2nn(-c3ccc(F)c(F)c3)ccc2=O)c1)OCC1COCCO1` (racemic) [Example 603, rac-1,4-dioxan-2-ylmethyl (3-{[1-(3,4-difluorophenyl)-4-oxo-1,4-dihydropyridazin-3-yl]methyl}phenyl)carbamate]: below 100 nM.
Next, `O=C(Nc1cccc(Cc2nn(-c3cc(F)cc(F)c3)ccc2=O)c1)OCC1CCCOC1` (racemic) [Example 607, rac-tetrahydro-2H-pyran-3-ylmethyl (3-{[1-(3,5-difluorophenyl)-4-oxo-1,4-dihydropyridazin-3-yl]methyl}phenyl)carbamate]: below 100 nM; `Cn1cc(-n2ccc(=O)c(Cc3cccc(NC(=O)OCC4CCOC(C)(C)C4)c3)n2)cn1` (racemic) [Example 611, rac-(2,2-dimethyl-tetrahydro-2H-pyran-4-yl)methyl (3-{[1-(1-methyl-1H-pyrazol-4-yl)-4-oxo-1,4-dihydropyridazin-3-yl]methyl}phenyl)carbamate]: below 100 nM; `Cn1cc(-n2ccc(=O)c(Cc3cccc(NC(=O)OCCC4(O)CCOC(C)(C)C4)c3)n2)cn1` (racemic) [Example 612, rac-2-(4-hydroxy-2,2-dimethyl-tetrahydro-2H-pyran-4-yl)ethyl (3-{[1-(1-methyl-1H-pyrazol-4-yl)-4-oxo-1,4-dihydropyridazin-3-yl]methyl}phenyl)carbamate]: below 100 nM.
The figure for `Cn1cc(-n2ccc(=O)c(Cc3cccc(NC(=O)OCC(N)C(F)(F)F)c3)n2)cn1` (racemic) [Example 619, rac-2-amino-3,3,3-trifluoropropyl (3-{[1-(1-methyl-1H-pyrazol-4-yl)-4-oxo-1,4-dihydropyridazin-3-yl]methyl}phenyl)carbamate] is below 100 nM; for `Cn1cc(-n2ccc(=O)c(Cc3cccc(NC(=O)OCC(F)CN)c3)n2)cn1` (racemic) [Example 621, rac-3-amino-2-fluoropropyl (3-{[1-(1-methyl-1H-pyrazol-4-yl)-4-oxo-1,4-dihydropyridazin-3-yl]methyl}phenyl)carbamate] it is below 100 nM; for `Cn1cc(-n2ccc(=O)c(Cc3cccc(NC(=O)OCC(F)CN4CCOCC4)c3)n2)cn1` (racemic) [Example 638, rac-2-Fluoro-3-morpholin-4-ylpropyl (3-{[1-(1-methyl-1H-pyrazol-4-yl)-4-oxo-1,4-dihydropyridazin-3-yl]methyl}phenyl)carbamate] it is below 100 nM.
On to `CCOC(=O)Nc1cccc(C(F)c2nn(-c3cnn(C)c3)ccc2=O)c1` (racemic) [Example 639, rac-Ethyl(3-{fluoro[1-(1-methyl-1H-pyrazol-4-yl)-4-oxo-1,4-dihydropyridazin-3-yl]methyl}phenyl)carbamate], for which the 50% inhibitory concentration (IC50) was below 100 nM.
The figure for `CCOC(=O)Nc1cccc(C(F)c2nn(-c3ccccc3)ccc2=O)c1` (racemic) [Example 640, rac-Ethyl-{3-[fluoro(4-oxo-1-phenyl-1,4-dihydropyridazin-3-yl)methyl]phenyl}carbamate] is 100 to 1000 nM.
Consider `CCOC(=O)Nc1cccc(C(F)c2nn(-c3ccc(Cl)cc3)ccc2=O)c1` (racemic) [Example 641, rac-Ethyl(3-{[1-(4-chlorophenyl)-4-oxo-1,4-dihydropyridazin-3-yl](fluoro)methyl}phenyl)carbamate], for which the IC50 is 100 to 1000 nM.
On to `CCOC(=O)Nc1cccc(C(C)c2nn(-c3ccccc3)ccc2=O)c1` (racemic) [Example 651, rac-Ethyl {3-[1-(4-oxo-1-phenyl-1,4-dihydropyridazin-3-yl)ethyl]phenyl}carbamate], for which the IC50 fell in the range of 100 to 1000 nM.
Next, `CCOc1cnc(-c2cccc(C(O)c3nn(-c4cnn(C)c4)ccc3=O)c2)nc1` (racemic) [Example 654, rac-3-[[3-(5-Ethoxypyrimidin-2-yl)phenyl](hydroxy)methyl]-1-(1-methyl-1H-pyrazol-4-yl)pyridazin-4(1H)-one]: 100 to 1000 nM.
On to `[2H]C([2H])([2H])n1cc(-n2ccc(=O)c(C(F)c3cccc(-c4ncc(OCC)cn4)c3)n2)cn1` (racemic) [Example 657, rac-3-[[3-(5-Ethoxypyrimidin-2-yl)phenyl](fluoro)methyl]-1-(1-methyl-1H-pyrazol-4-yl)pyridazin-4(1H)-one-d3], for which the concentration for half-maximal inhibition (IC50) is below 100 nM.
As for `[2H]C([2H])([2H])n1cc(-n2ccc(=O)c(C(F)c3cccc(-c4ncc(OC([2H])([2H])C([2H])([2H])[2H])cn4)c3)n2)cn1` (racemic) [Example 658, rac-3-[[3-(5-Ethoxypyrimidin-2-yl)phenyl](fluoro)methyl]-1-(1-methyl-1H-pyrazol-4-yl)pyridazin-4(1H)-one-d8], the IC50 is below 100 nM.
The figure for `CCOc1cnc(-c2cccc(C(OC)c3nn(-c4cnn(C)c4)ccc3=O)c2)nc1` (racemic) [Example 659, rac-3-[[3-(5-Ethoxypyrimidin-2-yl)phenyl](methoxy)methyl]-1-(1-methyl-1H-pyrazol-4-yl)pyridazin-4(1H)-one] is 100 to 1000 nM; for `CCOc1cnc(-c2cccc(C(CCC#N)c3nn(-c4cn[nH]c4)ccc3=O)c2)nc1` (racemic) [Example 665, rac-4-[3-(5-Ethoxypyrimidin-2-yl)phenyl]-4-[4-oxo-1-(1H-pyrazol-4-yl)-1,4-dihydropyridazin-3-yl]butanenitrile] it is 100 to 1000 nM; for `CCOc1ccnc(-c2cccc(C(C)c3nn(-c4cnn(C)c4)ccc3=O)c2)n1` (racemic) [Example 678, rac-3-{1-[3-(4-Ethoxypyrimidin-2-yl)phenyl]ethyl}-1-(1-methyl-1H-pyrazol-4-yl)pyridazin-4(1H)-one] it is below 100 nM.
Next, `COCCOc1ccnc(-c2cccc(C(C)c3nn(-c4cnn(C)c4)ccc3=O)c2)n1` (racemic) [Example 679, rac-3-(1-{3-[4-(2-methoxyethoxy)pyrimidin-2-yl]phenyl}ethyl)-1-(1-methyl-1H-pyrazol-4-yl)pyridazin-4(1H)-one]: 100 to 1000 nM; `CC(C)COC(=O)Nc1cccc(Cc2nn(-c3cnn(CCCC(=O)NCC(C)O)c3)ccc2=O)c1` (racemic) [Example 706, rac-2-methylpropyl (3-{[1-(1-{4-[(2-hydroxypropyl)amino]-4-oxobutyl}-1H-pyrazol-4-yl)-4-oxo-1,4-dihydropyridazin-3-yl]methyl}phenyl) carbamate]: 100 to 1000 nM; `Cn1cc(-n2ccc(=O)c(Cc3cccc(-c4ncn(CCC5CCCO5)n4)c3)n2)cn1` (racemic) [Example 711, rac-1-(1-methyl-1H-pyrazol-4-yl)-3-(3-{1-[2-(tetrahydrofuran-2-yl)ethyl]-1H-1,2,4-triazol-3-yl}benzyl)pyridazin-4(1H)-one]: below 100 nM.
The figure for `Cn1cc(-n2ccc(=O)c(Cc3cccc(-c4ncn(CCC5CCOC5)n4)c3)n2)cn1` (racemic) [Example 717, rac-1-(1-methyl-1H-pyrazol-4-yl)-3-(3-{1-[2-(tetrahydrofuran-3-yl)ethyl]-1H-1,2,4-triazol-3-yl}benzyl)pyridazin-4(1H)-one] is below 100 nM; for `Cn1cc(-n2ccc(=O)c(Cc3cccc(-c4ncn(CCCC5CCCO5)n4)c3)n2)cn1` (racemic) [Example 721, rac-1-(1-methyl-1H-pyrazol-4-yl)-3-(3-{1-[3-(tetrahydrofuran-2-yl)propyl]-1H-1,2,4-triazol-3-yl}benzyl)pyridazin-4(1H)-one] it is below 100 nM.
On to `CCOc1cnc(-c2cccc(C(C)c3nn(-c4cccc(C(N)=O)c4)ccc3=O)c2)nc1` (racemic) [Example 738, rac-3-[3-{1-[3-(5-ethoxypyrimidin-2-yl)phenyl]ethyl}-4-oxopyridazin-1(4H)-yl]lbenzamide], for which the concentration for half-maximal inhibition (IC50) was below 100 nM.

(Values after patent publication US20120264735A1 (priority 2009, published 2012).)
